Data taken from PubChem BioAssay AID1963858 (Molecular Pharmacology Branch, DTP, NCI, 2024).

Test system: HOP-62 multicell spheroids with HUVEC/MSC, viability
Assay: Anticancer human tumor HOP-62 cell line growth inhibition [KRAS2];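 also: viability read after a week of compound exposure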;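 as to viability, T/C: 100% = DMSO vehicle-treated spheroids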
Conditions: for IC50: curve of first compound; for viability, T/C: stronger effect = lower value
Outline: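 Combination screen of spheroid viability in tumor-cell co-cultures with endothelial (HUVEC) and mesenchymal stem cell stroma. Each agent was tested in half-log dilutions, topping at clinical Cmax or at 10 microM without a known Cmax.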

[1] = second compound 0.1 µM, first compound 0.0316 µM
[2] = second compound 0.1 µM, first compound 0.1 µM
[3] = second compound 0.1 µM, first compound 0.316 µM
[4] = second compound 0.1 µM, first compound 1 µM
[5] = second compound 0.1 µM, first compound 3.16 µM
[6] = second compound 0.316 µM, first compound 0.0316 µM
[7] = second compound 0.316 µM, first compound 0.1 µM
[8] = second compound 0.316 µM, first compound 0.316 µM
[9] = second compound 0.316 µM, first compound 1 µM
[10] = second compound 0.316 µM, first compound 3.16 µM
[11] = second compound 1 µM, first compound 0.0316 µM
[12] = second compound 1 µM, first compound 0.1 µM
[13] = second compound 1 µM, first compound 0.316 µM
[14] = second compound 1 µM, first compound 1 µM
[15] = second compound 1 µM, first compound 3.16 µM
[16] = second compound 3.16 µM, first compound 0.0316 µM
[17] = second compound 3.16 µM, first compound 0.1 µM
[18] = second compound 3.16 µM, first compound 0.316 µM
[19] = second compound 3.16 µM, first compound 1 µM
[20] = second compound 3.16 µM, first compound 3.16 µM
[21] = second compound 10 µM, first compound 0.0316 µM
[22] = second compound 10 µM, first compound 0.1 µM
[23] = second compound 10 µM, first compound 0.316 µM
[24] = second compound 10 µM, first compound 1 µM
[25] = second compound 10 µM, first compound 3.16 µM
[26] = second compound 0.1 µM, first compound 10 µM
[27] = second compound 0.316 µM, first compound 10 µM
[28] = second compound 1 µM, first compound 10 µM
[29] = second compound 3.16 µM, first compound 10 µM
[30] = second compound 10 µM, first compound 10 µM

Row | SMILES | IC50 (second compound 0.1 µM) [nM] | IC50 (second compound 0.316 µM) [nM] | IC50 (second compound 1 µM) [nM] | IC50 (second compound 3.16 µM) [nM] | IC50 (second compound 10 µM) [nM] | viability, T/C [1] [%] | viability, T/C [2] [%] | viability, T/C [3] [%] | viability, T/C [4] [%] | viability, T/C [5] [%] | viability, T/C [6] [%] | viability, T/C [7] [%] | viability, T/C [8] [%] | viability, T/C [9] [%] | viability, T/C [10] [%] | viability, T/C [11] [%] | viability, T/C [12] [%] | viability, T/C [13] [%] | viability, T/C [14] [%] | viability, T/C [15] [%] | other results
1 | CC1COCCN1c1cc(-c2ccnn2C)c2ccnc(-c3ccn[nH]3)c2n1 (stereo not given) + COc1cc2nc(C)nc(NC(C)c3cc(N)cc(C(F)(F)F)c3)c2cc1OC1CCOC1 | < 10 | 68.6 | 54.2 | 22.8 | 10.9 | 6.78 | 7.26 | 6.53 | 8.4 | 10.7 | 83.5 | 33.9 | 16.5 | 13.4 | 14.4 | 65.8 | 31.4 | 19.6 | 12.5 | 11.2 | viability, T/C (second compound 0.1 µM, first compound 0.01 µM): 8.83%; viability, T/C (second compound 0.316 µM, first compound 0.01 µM): 125%; viability, T/C (second compound 1 µM, first compound 0.01 µM): 120%; viability, T/C (second compound 3.16 µM, first compound 0.01 µM): 77.4%; viability, T/C [16]: 38.2%; viability, T/C [17]: 22.9%; viability, T/C [18]: 13.9%; viability, T/C [19]: 9.69%; viability, T/C [20]: 10.8%; viability, T/C (second compound 10 µM, first compound 0.01 µM): 52.1%; viability, T/C [21]: 36%; viability, T/C [22]: 27.4%; viability, T/C [23]: 22.3%; viability, T/C [24]: 15.8%; viability, T/C [25]: 12.9%
2 | CC1OCC2(CCN(c3cnc(Sc4ccnc(N)c4Cl)c(N)n3)CC2)C1N (stereo not given) + COc1cc2nc(C)nc(NC(C)c3cc(N)cc(C(F)(F)F)c3)c2cc1OC1CCOC1 | > 10000 | > 10000 | 1220 | 510 | 51.9 | 89.6 | 88.9 | 79.8 | 66 | 59.5 | 98.4 | 96.1 | 76.2 | 68.9 | 55.5 | 99.4 | 77.9 | 61.2 | 53.6 | 41.8 | viability, T/C [26]: 59.5%; viability, T/C [27]: 52.8%; viability, T/C [28]: 40.3%; viability, T/C [16]: 82%; viability, T/C [17]: 73.8%; viability, T/C [18]: 59.4%; viability, T/C [19]: 38.4%; viability, T/C [20]: 25.7%; viability, T/C [29]: 31.1%; viability, T/C [21]: 58%; viability, T/C [22]: 40.1%; viability, T/C [23]: 26.9%; viability, T/C [24]: 23.7%; viability, T/C [25]: 20.3%; viability, T/C [30]: 18.6%
3 | Cn1nccc1Nc1nccc(-c2cc3c(s2)C(C)(C)N(CCN2CCOCC2)C3=O)n1 + COc1cc2nc(C)nc(NC(C)c3cc(N)cc(C(F)(F)F)c3)c2cc1OC1CCOC1 | 795 | 801 | 769 | 389 | 189 | 107 | 103 | 76.2 | 44.8 | 25.2 | 106 | 98.6 | 77.9 | 45 | 20.6 | 101 | 88.3 | 67.9 | 48 | 22.1 | viability, T/C [26]: 25.8%; viability, T/C [27]: 22.8%; viability, T/C [28]: 20.9%; viability, T/C [16]: 93.8%; viability, T/C [17]: 78.7%; viability, T/C [18]: 54.2%; viability, T/C [19]: 33.1%; viability, T/C [20]: 22%; viability, T/C [29]: 22.3%; viability, T/C [21]: 66.7%; viability, T/C [22]: 60.4%; viability, T/C [23]: 41.6%; viability, T/C [24]: 28.2%; viability, T/C [25]: 25.1%; viability, T/C [30]: 24%
